Measurements from patent US7030273B1, “Compounds with physiological cooling effect” (Qaroma, Inc, priority 2005, dated 2006).

Key:
[1] = system: cold receptors of the skin and mucous membranes of the human body; experiment: Panel test of physiological cooling ability against WS-23, solutions applied orally; format: in vivo; set-up: key: + means the compound has equal or stronger cooling effect than WS-23; settings: 2000 ppm solution applied orally; panel of 5 people
Procedure: The following testing procedure is aimed at determining physiological cooling ability of testing compounds with regard to WS-23 ([…]). The tests are carried out on a selected panel of 5 people. The present test procedure is done on a statistical basis because sensitivity to cooling compounds will vary not only from compound to compound and from one part of the body to another, but from one individual to another as well. Tests of this nature are commonly used on the testing and quality control of the organoleptic properties, e.g. taste, smell of organic and inorganic food products.
1 g of each testing compound is dissolved in 99 g denatured ethanol to form 1% solution. 2 g such solution is then diluted with 8 g deionized water to form 2000 ppm solution. The solutions are then applied orally to determine the cooling effect.
To test the cooling activity of the compounds in this invention, the compounds prepared in this invention are tested repeatedly by the 5 selected panelists and the results are compared with WS-23.

tongue = experiment: Toothpicks soaked in compound solution, put on tongue; format: in vivo, human; settings: toothpick tips soaked in 5% solution in denatured ethanol, dried
Text: Toothpick tips were soaked in 5% solution of Compound 3 in this invention in denatured ethanol for long enough to have enough deposition of the compound. The picks were then dried.

mouth = experiment: Mint candies containing the compound, cooling effect in the mouth; format: in vivo, human; settings: 0.02% in icing sugar candies
Procedure: Icing sugar was mixed with small amount of water at 50° C. to form a paste. 0.02% Compound 5 in this invention was added and stirred. Cooled to room temperature, the mixture hardened and was broken into smaller pieces.

Row | Structure (SMILES) | melting point [°C] | Cooling ability compared to WS-23 [1] | cooling sensation on tongue (tongue) | cooling effect in the mouth (mouth)
1 | CCOCCNC(=O)C(C)(C(C)C)C(C)C [Compound 3, N-(2-ethoxyethyl)-2,3-dimethyl-2-isopropylbutyramide] |  | + | pronounced cooling sensation | 
2 | CCCCOCCCNC(=O)C(C)(C(C)C)C(C)C [Compound 8, N-(3-butoxypropyl)-2,3-dimethyl-2-isopropylbutyramide] | 40 | + |  | 

Now from value to molecule, other results behind:

Row | melting point [°C] | Structure (SMILES) | Cooling ability compared to WS-23 [1] | cooling sensation on tongue (tongue) | cooling effect in the mouth (mouth)
3 | 10 | COCCCNC(=O)C(C)(C(C)C)C(C)C [Compound 5, N-(3-methoxypropyl)-2,3-dimethyl-2-isopropylbutyramide] | + |  | marked cooling effect in the mouth
4 | 30 | CCOCCCNC(=O)C(C)(C(C)C)C(C)C [Compound 6, N-(3-ethoxypropyl)-2,3-dimethyl-2-isopropylbutyramide] | + |  | 
5 | 32 | CC(C)OCCCNC(=O)C(C)(C(C)C)C(C)C [Compound 7, N-(3-isopropoxypropyl)-2,3-dimethyl-2-isopropylbutyramide] | + |  | 
